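Grown in 96-well plates, cells were treated for 48 hours with each compound at five concentrations. Insufficient inhibition: endpoint recorded as highest concentration tested. GI50 marks 50% less growth.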 Active and inactive are the calls of the source. No stated cut-off is given here; in the data, active = GI50 up to about 1.1 µM and inactive = higher.
Key:
Test in all cases: NCI-60 cell line screen, 48 h
SNB-75 = test system: SNB-75
UO-31 = test system: UO-31
Malme-3M = test system: Malme-3M
IGROV-1 = test system: IGROV-1
TK-10 = test system: TK-10
OVCAR-4 = test system: OVCAR-4
HCT-116 = test system: HCT-116
RPMI-8226 = test system: RPMI-8226
SW-620 = test system: SW-620
A549 = test system: A549
SF-295 = test system: SF-295
SF-539 = test system: SF-539
OVCAR-5 = test system: OVCAR-5
U-251 = test system: U-251
LOX IMVI = test system: LOX IMVI
SK-MEL-5 = test system: SK-MEL-5
CAKI-1 = test system: CAKI-1
MOLT-4 = test system: MOLT-4
NCI-H226 = test system: NCI-H226
SK-MEL-2 = test system: SK-MEL-2

Compound: CC1(C)[C@@H]2C[C@H]1C(Cc1ccccc1C[C@H]1c3cc(-c4ccccn4)ncc3[C@H]3C[C@@H]1C3(C)C)c1cc(-c3ccccn3)ncc12 (stereo partly specified)
- GI50 (SNB-75): 0.679 µM (active)
- GI50 (UO-31): 0.312 µM (active)
- GI50 (Malme-3M): 0.678 µM (active)
- GI50 (IGROV-1): 0.274 µM (active)
- GI50 (TK-10): 0.638 µM (active)
- GI50 (OVCAR-4): 0.716 µM (active)
- GI50 (HCT-116): 0.342 µM (active)
- GI50 (RPMI-8226): 0.348 µM (active)
- GI50 (SW-620): 0.6 µM (active)
- GI50 (A549): 0.371 µM (active)
- GI50 (SF-295): 0.408 µM (active)
- GI50 (SF-539): 0.577 µM (active)
- GI50 (OVCAR-5): 0.791 µM (active)
- GI50 (U-251): 0.324 µM (active)
- GI50 (LOX IMVI): 0.361 µM (active)
- GI50 (SK-MEL-5): 0.0834 µM (active)
- GI50 (CAKI-1): 0.568 µM (active)
- GI50 (MOLT-4): 0.236 µM (active)

Compound: COC(=O)c1ccc(/C=C2\N=C(C)OC2=O)cc1
- GI50 (SNB-75): > 100 µM (inactive)
- GI50 (IGROV-1): > 100 µM (inactive)
- GI50 (TK-10): > 100 µM (inactive)
- GI50 (OVCAR-4): > 100 µM (inactive)
- GI50 (HCT-116): > 100 µM (inactive)
- GI50 (RPMI-8226): > 100 µM (inactive)
- GI50 (SW-620): > 100 µM (inactive)
- GI50 (A549): > 100 µM (inactive)
- GI50 (SF-295): > 100 µM (inactive)
- GI50 (SF-539): > 100 µM (inactive)
- GI50 (OVCAR-5): > 100 µM (inactive)
- GI50 (U-251): > 100 µM (inactive)
- GI50 (LOX IMVI): > 100 µM (inactive)
- GI50 (SK-MEL-5): > 100 µM (inactive)
- GI50 (CAKI-1): > 100 µM (inactive)
- GI50 (NCI-H226): > 100 µM (inactive)
- GI50 (MOLT-4): > 100 µM (inactive)

Compound: CC(=O)OC1=C2CC3(C)OC(=O)CC(C)(C)C3=CC=C2C=C(C(C)C)C1=O (stereo unspecified)
- GI50 (SNB-75): 0.71 µM (active)
- GI50 (SK-MEL-2): 0.459 µM (active)
- GI50 (UO-31): 1.74 µM (inactive)
- GI50 (Malme-3M): 0.356 µM (active)
- GI50 (IGROV-1): 0.845 µM (active)
- GI50 (TK-10): 1.21 µM (inactive)
- GI50 (OVCAR-4): 0.299 µM (active)
- GI50 (HCT-116): 0.41 µM (active)
- GI50 (RPMI-8226): 0.22 µM (active)
- GI50 (SW-620): 0.316 µM (active)
- GI50 (A549): 1.9 µM (inactive)
- GI50 (SF-295): 1.66 µM (inactive)
- GI50 (OVCAR-5): 0.912 µM (active)
- GI50 (U-251): 1.6 µM (inactive)
- GI50 (LOX IMVI): 0.201 µM (active)
- GI50 (SK-MEL-5): 0.826 µM (active)
- GI50 (CAKI-1): 1.56 µM (inactive)
- GI50 (NCI-H226): 1.74 µM (inactive)
- GI50 (MOLT-4): 0.294 µM (active)

Compound: O=c1[nH]c(-c2ccccc2)nc2cc([N+](=O)[O-])c(/C(Cl)=C/c3ccccc3)cc12
- GI50 (SNB-75): 22.3 µM (inactive)
- GI50 (SK-MEL-2): 21.9 µM (inactive)
- GI50 (UO-31): 99.5 µM (inactive)
- GI50 (Malme-3M): 24.3 µM (inactive)
- GI50 (IGROV-1): 55 µM (inactive)
- GI50 (TK-10): 27.7 µM (inactive)
- GI50 (OVCAR-4): 18.3 µM (inactive)
- GI50 (HCT-116): 21 µM (inactive)
- GI50 (RPMI-8226): 16.1 µM (inactive)
- GI50 (SW-620): 23.6 µM (inactive)
- GI50 (A549): 23.2 µM (inactive)
- GI50 (SF-295): 20.7 µM (inactive)
- GI50 (SF-539): 25.2 µM (inactive)
- GI50 (OVCAR-5): > 100 µM (inactive)
- GI50 (U-251): 28.6 µM (inactive)
- GI50 (SK-MEL-5): 16.1 µM (inactive)
- GI50 (CAKI-1): 15.1 µM (inactive)
- GI50 (NCI-H226): > 100 µM (inactive)
- GI50 (MOLT-4): 50.8 µM (inactive)

Compound: S=C1SC(=N\c2ccccc2)/C(=N/c2ccccc2)N1c1ccccc1
- GI50 (SNB-75): 19 µM (inactive)
- GI50 (SK-MEL-2): > 100 µM (inactive)
- GI50 (UO-31): > 100 µM (inactive)
- GI50 (Malme-3M): 45.9 µM (inactive)
- GI50 (IGROV-1): > 100 µM (inactive)
- GI50 (OVCAR-4): 8.53 µM (inactive)
- GI50 (HCT-116): 83.9 µM (inactive)
- GI50 (RPMI-8226): 31.3 µM (inactive)
- GI50 (SF-295): 34.5 µM (inactive)
- GI50 (OVCAR-5): > 100 µM (inactive)
- GI50 (U-251): 90.8 µM (inactive)
- GI50 (SK-MEL-5): 62.7 µM (inactive)
- GI50 (CAKI-1): > 100 µM (inactive)
- GI50 (NCI-H226): > 100 µM (inactive)
- GI50 (MOLT-4): > 100 µM (inactive)

Compound: CN(N)c1nc(N)c(C#N)c(C#N)c1C#N
- GI50 (SNB-75): > 10 µM (inactive)
- GI50 (Malme-3M): > 10 µM (inactive)
- GI50 (IGROV-1): > 10 µM (inactive)
- GI50 (TK-10): > 10 µM (inactive)
- GI50 (OVCAR-4): > 10 µM (inactive)
- GI50 (HCT-116): > 10 µM (inactive)
- GI50 (RPMI-8226): > 10 µM (inactive)
- GI50 (SW-620): > 10 µM (inactive)
- GI50 (A549): > 10 µM (inactive)
- GI50 (SF-295): > 10 µM (inactive)
- GI50 (SF-539): > 10 µM (inactive)
- GI50 (OVCAR-5): > 10 µM (inactive)
- GI50 (U-251): > 10 µM (inactive)
- GI50 (LOX IMVI): > 10 µM (inactive)
- GI50 (SK-MEL-5): > 10 µM (inactive)
- GI50 (CAKI-1): > 10 µM (inactive)
- GI50 (MOLT-4): > 10 µM (inactive)

Compound: CC(=O)OC/C=C\Cn1ncc(=O)[nH]c1=O
- GI50 (SNB-75): 16.7 µM (inactive)
- GI50 (SK-MEL-2): 18.1 µM (inactive)
- GI50 (UO-31): 16.1 µM (inactive)
- GI50 (Malme-3M): 16.5 µM (inactive)
- GI50 (IGROV-1): 17.9 µM (inactive)
- GI50 (RPMI-8226): 7.71 µM (inactive)
- GI50 (SW-620): 17.1 µM (inactive)
- GI50 (A549): 22.9 µM (inactive)
- GI50 (SF-539): 18.2 µM (inactive)
- GI50 (OVCAR-5): 17.9 µM (inactive)
- GI50 (U-251): 15 µM (inactive)
- GI50 (LOX IMVI): 3.32 µM (inactive)
- GI50 (SK-MEL-5): 12.6 µM (inactive)
- GI50 (NCI-H226): 18 µM (inactive)
- GI50 (MOLT-4): 19.2 µM (inactive)

Compound: CC1OC(O)CC(OC(=O)c2ccccc2)C1OC(=O)c1ccccc1 (stereo unspecified)
- GI50 (Malme-3M): 16.6 µM (inactive)
- GI50 (IGROV-1): 12.4 µM (inactive)
- GI50 (TK-10): > 100 µM (inactive)
- GI50 (OVCAR-4): 15.1 µM (inactive)
- GI50 (HCT-116): 11.3 µM (inactive)
- GI50 (RPMI-8226): 8.18 µM (inactive)
- GI50 (SW-620): 13.3 µM (inactive)
- GI50 (A549): > 100 µM (inactive)
- GI50 (SF-295): 48 µM (inactive)
- GI50 (SF-539): 17.5 µM (inactive)
- GI50 (OVCAR-5): > 100 µM (inactive)
- GI50 (U-251): 30.1 µM (inactive)
- GI50 (LOX IMVI): 11.1 µM (inactive)
- GI50 (SK-MEL-5): 16.7 µM (inactive)
- GI50 (CAKI-1): 23.3 µM (inactive)
- GI50 (MOLT-4): 13.9 µM (inactive)

Reference: ChEMBL document CHEMBL1201862, “PubChem BioAssay data set” (2004)
